Results: US6737383B1, “Herbicidal oxadiazolidines” (priority 1999, dated 2004)

Assays:
[1] = test system: bedstraw; assay: Test B pre/postemergence bedstraw; assay type: in vivo, Galium aparine
Procedure, shortened: (§1)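 Herbicidal effect was estimated by eye on a ten-point control scale after plants spent twelve to sixteen days in a greenhouse following soil or foliar treatment. Foliar sprays targeted plants at one to four leaves; all doses were formulated in a non-phytotoxic solvent with surfactant.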

[2] = test system: blackgrass; assay: Test B pre/postemergence blackgrass; assay type: in vivo, Alopecurus myosuroides
Procedure, shortened: as §1

[3] = test system: surinam grass; assay: Test B pre/postemergence surinam grass; assay type: in vivo, Brachiaria decumbens
Procedure, shortened: as §1

[4] = test system: cocklebur; assay: Test B pre/postemergence cocklebur; assay type: in vivo, Xanthium strumarium
Procedure, shortened: as §1

[5] = test system: corn; assay: Test B pre/postemergence corn; assay type: in vivo, Zea mays
Procedure, shortened: as §1

[6] = test system: crabgrass; assay: Test B pre/postemergence crabgrass; assay type: in vivo, Digitaria sanguinalis
Procedure, shortened: as §1

[7] = test system: giant foxtail; assay: Test B pre/postemergence giant foxtail; assay type: in vivo, Setaria faberii
Procedure, shortened: as §1

[8] = test system: morningglory; assay: Test B pre/postemergence morningglory; assay type: in vivo, Ipomoea hederacea
Procedure, shortened: as §1

[9] = test system: pigweed; assay: Test B pre/postemergence pigweed; assay type: in vivo, Amaranthus retroflexus
Procedure, shortened: as §1

[10] = test system: rape; assay: Test B pre/postemergence rape; assay type: in vivo, Brassica napus
Procedure, shortened: as §1

[11] = test system: soybean; assay: Test B pre/postemergence soybean; assay type: in vivo, Glycine max
Procedure, shortened: as §1

[12] = test system: sugar beet; assay: Test B pre/postemergence sugar beet; assay type: in vivo, Beta vulgaris
Procedure, shortened: as §1

[13] = test system: velvetleaf; assay: Test B pre/postemergence velvetleaf; assay type: in vivo, Abutilon theophrasti
Procedure, shortened: as §1

[14] = test system: wheat; assay: Test B pre/postemergence wheat; assay type: in vivo, Triticum aestivum
Procedure, shortened: as §1

[15] = test system: wild oat; assay: Test B pre/postemergence wild oat; assay type: in vivo, Avena fatua
Procedure, shortened: as §1

[16] = test system: purple nutsedge; assay: Test B pre/postemergence purple nutsedge; assay type: in vivo, Cyperus rotundus
Procedure, shortened: as §1

[17] = Preemergence, Rate 62 g/ha, scale of 0 to 10 where 0 is no effect and 10 is complete control
[18] = Preemergence, Rate 125 g/ha, 0 is no effect, 10 is complete control
[19] = Preemergence, Rate 250 g/ha, scale 0 to 10, 0 is no effect, 10 is complete control
[20] = Preemergence, Rate 500 g/ha, scale 0 to 10 (0 no effect, 10 complete control)
[21] = Rate 62 g/ha, Postemergence, scale of 0 to 10 where 0 is no effect and 10 is complete control
[22] = Rate 125 g/ha, Postemergence, scale 0 to 10
[23] = Rate 500 g/ha, Postemergence, scale 0 to 10

CC(C)N(C(=O)n1oc(=O)n(CC2CO2)c1=O)c1ccc(F)cc1 (centres unmarked) [Compound 188]
Bedstraw plant response rating [1, 17]: 0 | Bedstraw plant response rating (0 to 10 scale) [1, 18]: 0 | Bedstraw plant response rating [1, 19]: 0 | Bedstraw plant response rating [1, 20]: 0 | Bedstraw plant response rating [1, 21]: 0 | Bedstraw plant response rating [1, 22]: 0 | Plant response rating (0 to 10; 0 is no effect, 10 is complete control), Bedstraw ([1]; Rate 250 g/ha, Postemergence): 3 | Bedstraw plant response rating [1, 23]: 5 | Blackgrass plant response rating [2, 17]: 0 | Blackgrass plant response rating (0 to 10 scale) [2, 18]: 0 | Blackgrass plant response rating [2, 19]: 0 | Blackgrass plant response rating [2, 20]: 0 | Blackgrass plant response rating [2, 21]: 0 | Blackgrass plant response rating [2, 22]: 0 | Plant response rating (0 to 10; 0 is no effect, 10 is complete control), Blackgrass ([2]; Rate 250 g/ha, Postemergence): 0 | Blackgrass plant response rating [2, 23]: 3 | B. signalgrass plant response rating [3, 17]: 0 | B. signalgrass plant response rating (0 to 10 scale) [3, 18]: 0 | B. signalgrass plant response rating [3, 19]: 6 | B. signalgrass plant response rating [3, 20]: 7 | B. signalgrass plant response rating [3, 21]: 0 | B. signalgrass plant response rating ([3]; Rate 125 g/ha, Postemergence, scale 0 (no effect) to 10 (complete control)): 0 | Plant response rating, B. signalgrass ([3]; Rate 250 g/ha, Postemergence, scale 0 to 10, 0 is no effect, 10 is complete control): 0 | B. signalgrass plant response rating ([3]; Rate 500 g/ha, Postemergence, scale 0 to 10, 0 no effect, 10 complete control): 0 | Cocklebur plant response rating [4, 17]: 0 | Cocklebur plant response rating (0 to 10 scale) [4, 18]: 0 | Cocklebur plant response rating [4, 19]: 0 | Cocklebur plant response rating [4, 20]: 0 | Cocklebur plant response rating [4, 21]: 0 | Cocklebur plant response rating [4, 22]: 0 | Plant response rating (0 to 10; 0 is no effect, 10 is complete control), Cocklebur ([4]; Rate 250 g/ha, Postemergence): 0 | Cocklebur plant response rating [4, 23]: 0 | Corn plant response rating [5, 17]: 0 | Corn plant response rating (0 to 10 scale) [5, 18]: 0 | Corn plant response rating [5, 19]: 0 | Corn plant response rating [5, 20]: 0 | Corn plant response rating [5, 21]: 0 | Corn plant response rating [5, 22]: 0 | Plant response rating (0 to 10; 0 is no effect, 10 is complete control), Corn ([5]; Rate 250 g/ha, Postemergence): 0 | Corn plant response rating [5, 23]: 0 | Crabgrass plant response rating [6, 17]: 0 | Crabgrass plant response rating (0 to 10 scale) [6, 18]: 0 | Crabgrass plant response rating [6, 19]: 0 | Crabgrass plant response rating [6, 20]: 0 | Crabgrass plant response rating [6, 21]: 0 | Crabgrass plant response rating [6, 22]: 0 | Plant response rating (0 to 10; 0 is no effect, 10 is complete control), Crabgrass ([6]; Rate 250 g/ha, Postemergence): 3 | Crabgrass plant response rating [6, 23]: 3 | Giant foxtail plant response rating [7, 17]: 0 | Giant foxtail plant response rating (0 to 10 scale) [7, 18]: 2 | Giant foxtail plant response rating [7, 19]: 4 | Giant foxtail plant response rating [7, 20]: 7 | Giant foxtail plant response rating [7, 21]: 0 | Giant foxtail plant response rating [7, 22]: 0 | Plant response rating (0 to 10; 0 is no effect, 10 is complete control), Giant foxtail ([7]; Rate 250 g/ha, Postemergence): 2 | Giant foxtail plant response rating [7, 23]: 4 | Morningglory plant response rating [8, 17]: 0 | Morningglory plant response rating (0 to 10 scale) [8, 18]: 0 | Morningglory plant response rating [8, 19]: 0 | Morningglory plant response rating [8, 20]: 0 | Morningglory plant response rating [8, 21]: 0 | Morningglory plant response rating [8, 22]: 0 | Plant response rating (0 to 10; 0 is no effect, 10 is complete control), Morningglory ([8]; Rate 250 g/ha, Postemergence): 0 | Morningglory plant response rating [8, 23]: 0 | Redroot pigweed plant response rating [9, 17]: 0 | Redroot pigweed plant response rating (0 to 10 scale) [9, 18]: 0 | Redroot pigweed plant response rating [9, 19]: 0 | Redroot pigweed plant response rating [9, 20]: 0 | Redroot pigweed plant response rating [9, 21]: 0 | Redroot pigweed plant response rating [9, 22]: 0 | Plant response rating (0 to 10; 0 is no effect, 10 is complete control), Redroot pigweed ([9]; Rate 250 g/ha, Postemergence): 0 | Redroot pigweed plant response rating [9, 23]: 3 | Rape plant response rating [10, 17]: 0 | Rape plant response rating (0 to 10 scale) [10, 18]: 0 | Rape plant response rating [10, 19]: 0 | Rape plant response rating [10, 20]: 0 | Rape plant response rating [10, 21]: 0 | Rape plant response rating [10, 22]: 0 | Plant response rating (0 to 10; 0 is no effect, 10 is complete control), Rape ([10]; Rate 250 g/ha, Postemergence): 0 | Rape plant response rating [10, 23]: 0 | Soybean plant response rating [11, 17]: 0 | Soybean plant response rating (0 to 10 scale) [11, 18]: 0 | Soybean plant response rating [11, 19]: 0 | Soybean plant response rating [11, 20]: 0 | Soybean plant response rating [11, 21]: 1 | Soybean plant response rating [11, 22]: 2 | Plant response rating (0 to 10; 0 is no effect, 10 is complete control), Soybean ([11]; Rate 250 g/ha, Postemergence): 2 | Soybean plant response rating [11, 23]: 3 | Sugarbeets plant response rating [12, 17]: 0 | Sugarbeets plant response rating (0 to 10 scale) [12, 18]: 0 | Sugarbeets plant response rating [12, 19]: 0 | Sugarbeets plant response rating [12, 20]: 6 | Sugarbeets plant response rating [12, 21]: 0 | Sugarbeets plant response rating [12, 22]: 0 | Plant response rating (0 to 10; 0 is no effect, 10 is complete control), Sugarbeets ([12]; Rate 250 g/ha, Postemergence): 0 | Sugarbeets plant response rating [12, 23]: 7 | Velvetleaf plant response rating [13, 17]: 0 | Velvetleaf plant response rating [13, 19]: 0 | Velvetleaf plant response rating [13, 20]: 2 | Velvetleaf plant response rating [13, 21]: 0 | Velvetleaf plant response rating [13, 22]: 0 | Plant response rating (0 to 10; 0 is no effect, 10 is complete control), Velvetleaf ([13]; Rate 250 g/ha, Postemergence): 0 | Wheat plant response rating [14, 17]: 0 | Wheat plant response rating [14, 19]: 0 | Wheat plant response rating [14, 20]: 0 | Wheat plant response rating [14, 21]: 0 | Wheat plant response rating [14, 22]: 0 | Plant response rating (0 to 10; 0 is no effect, 10 is complete control), Wheat ([14]; Rate 250 g/ha, Postemergence): 0 | Wild oats plant response rating [15, 17]: 0 | Wild oats plant response rating [15, 19]: 0 | Wild oats plant response rating [15, 20]: 0 | Wild oats plant response rating [15, 21]: 0 | Wild oats plant response rating [15, 22]: 0 | Plant response rating (0 to 10; 0 is no effect, 10 is complete control), Wild oats ([15]; Rate 250 g/ha, Postemergence): 0 | Nutsedge plant response rating [16, 17]: 0 | Nutsedge plant response rating (0 to 10 scale) [16, 18]: 0 | Nutsedge plant response rating [16, 19]: 0 | Nutsedge plant response rating [16, 20]: 0 | Nutsedge plant response rating [16, 21]: 0 | Nutsedge plant response rating [16, 22]: 0 | Plant response rating (0 to 10; 0 is no effect, 10 is complete control), Nutsedge ([16]; Rate 250 g/ha, Postemergence): 0 | Nutsedge plant response rating [16, 23]: 0
